Data from US20240132431A1, “METHOD FOR ALKYLATING ACIDIC FUNCTIONAL GROUP” (Chugai Seiyaku Kabushiki Kaisha, priority 2021, published 2024).

Molecular target: T1, Bcl-2 protein (Recombinant Human Bcl-2 Protein) (Homo sapiens, UniProt P10415)
T1 construct: purchased Novus NBP2-34889
Experiment: Binding evaluation of mixture library compounds to Bcl-2 using AS-MS (affinity selection mass spectrometry)
Conditions: AS-MS, mixture of 1200 compounds, Bcl-2, ASMS Ratio(%)=(A−C)/B×100; for ASMS ratio (%) n = 1: replicate n = 1; for ASMS ratio (%) n = 2: replicate n = 2
Outline: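 Bcl-2 binding is scored from LC/MS signal retained with protein through gel-filtration spin columns, normalised to unfiltered and protein-free controls. Incubation: 20 μM protein, […] per compound, 1 h, 23° C.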

T1 sequence (P10415 whole entry): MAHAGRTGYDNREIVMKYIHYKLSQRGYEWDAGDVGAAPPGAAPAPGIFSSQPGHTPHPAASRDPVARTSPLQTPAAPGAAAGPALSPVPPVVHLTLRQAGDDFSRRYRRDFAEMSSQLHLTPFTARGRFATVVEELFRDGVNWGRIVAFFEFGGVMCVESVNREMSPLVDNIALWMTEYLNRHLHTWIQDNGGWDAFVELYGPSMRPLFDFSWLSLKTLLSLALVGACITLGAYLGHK

| SMILES | ASMS ratio (%) n = 1 [%] | ASMS ratio (%) n = 2 [%] |
| --- | --- | --- |
| CCOc1cccc(-c2ccc(CN3CCN(c4ccc(C(=O)NCC56CC7CC(CC(C7)C5)C6)cc4)CC3)cc2F)c1 [B1A051-01, N-(1-Adamantylmethyl)-4-[4-[[4-(3-ethoxyphenyl)-3-fluorophenyl]methyl]piperazin-1-yl]benzamide] | −5.4 | −4.2 |
| CCOc1cncc(-c2ccc(CN3CCN(c4ccc(C(=O)NCC56CC7CC(CC(C7)C5)C6)cc4)CC3)cc2F)c1 [B1A052-01, N-(1-Adamantylmethyl)-4-[4-[[4-(5-ethoxypyridin-3-yl)-3-fluorophenyl]methyl]piperazin-1-yl]benzamide] | 4.2 | −6.2 |
| CCOc1cccc(-c2ccc(CN3CCN(c4ccc(C(=O)NCC56CC7CC(CC(C7)C5)C6)cc4)CC3)c(OC)c2)c1 [B1A053-01, N-(1-Adamantylmethyl)-4-[4-[[4-(3-ethoxyphenyl)-2-methoxyphenyl]methyl]piperazin-1-yl]benzamide] | 13.2 | 4.8 |
| CCOc1cncc(-c2ccc(CN3CCN(c4ccc(C(=O)NCC56CC7CC(CC(C7)C5)C6)cc4)CC3)c(OC)c2)c1 [B1A054-01, N-(1-Adamantylmethyl)-4-[4-[[4-(5-ethoxypyridin-3-yl)-2-methoxyphenyl]methyl]piperazin-1-yl]benzamide] | 0.0 | 0.0 |
| CCOc1cccc(-c2cc(CN3CCN(c4ccc(C(=O)NCC56CC7CC(CC(C7)C5)C6)cc4)CC3)cc(OCC)c2)c1 [B1A055-01, N-(1-Adamantylmethyl)-4-[4-[[3-ethoxy-5-(3-ethoxyphenyl)phenyl]methyl]piperazin-1-yl]benzamide] | −0.1 | −14.4 |
| CCOc1cncc(-c2cc(CN3CCN(c4ccc(C(=O)NCC56CC7CC(CC(C7)C5)C6)cc4)CC3)cc(OCC)c2)c1 [B1A056-01, N-(1-Adamantylmethyl)-4-[4-[[3-ethoxy-5-(5-ethoxypyridin-3-yl)phenyl]methyl]piperazin-1-yl]benzamide] | 9.7 | 4.0 |
| CCOc1cccc(-c2cc(CN3CCN(c4ccc(C(=O)NCC56CC7CC(CC(C7)C5)C6)cc4)CC3)cc(OC(C)C)c2)c1 [B1A057-01, N-(1-Adamantylmethyl)-4-[4-[[3-(3-ethoxyphenyl)-5-propan-2-yloxyphenyl]methyl]piperazin-1-yl]benzamide] | 0.0 | 0.0 |
| CCOc1cncc(-c2cc(CN3CCN(c4ccc(C(=O)NCC56CC7CC(CC(C7)C5)C6)cc4)CC3)cc(OC(C)C)c2)c1 [B1A058-01, N-(1-Adamantylmethyl)-4-[4-[[3-(5-ethoxypyridin-3-yl)-5-propan-2-yloxyphenyl]methyl]piperazin-1-yl]benzamide] | – | 0.0 |
| CCOc1cccc(-c2cc(OC)c(CN3CCN(c4ccc(C(=O)NCC56CC7CC(CC(C7)C5)C6)cc4)CC3)c(OC)c2)c1 [B1A059-01, N-(1-Adamantylmethyl)-4-[4-[[4-(3-ethoxyphenyl)-2,6-dimethoxyphenyl]methyl]piperazin-1-yl]benzamide] | 7.7 | −5.5 |
| CCOc1cncc(-c2cc(OC)c(CN3CCN(c4ccc(C(=O)NCC56CC7CC(CC(C7)C5)C6)cc4)CC3)c(OC)c2)c1 [B1A060-01, N-(1-Adamantylmethyl)-4-[4-[[4-(5-ethoxypyridin-3-yl)-2,6-dimethoxyphenyl]methyl]piperazin-1-yl]benzamide] | 0.0 | – |
| CCOc1cccc(-c2cc(CN3CCN(c4ccc(C(=O)NCC56CC7CC(CC(C7)C5)C6)cc4)CC3)cc(C(F)(F)F)c2)c1 [B1A061-01, N-(1-Adamantylmethyl)-4-[4-[[3-(3-ethoxyphenyl)-5-(trifluoromethyl)phenyl]methyl]piperazin-1-yl]benzamide] | 5.3 | 1.1 |
| CCOc1cncc(-c2cc(CN3CCN(c4ccc(C(=O)NCC56CC7CC(CC(C7)C5)C6)cc4)CC3)cc(C(F)(F)F)c2)c1 [B1A062-01, N-(1-Adamantylmethyl)-4-[4-[[3-(5-ethoxypyridin-3-yl)-5-(trifluoromethyl)phenyl]methyl]piperazin-1-yl]benzamide] | −0.3 | −9.7 |
| CCOc1cccc(-c2cc(CN3CCN(c4ccc(C(=O)NCC56CC7CC(CC(C7)C5)C6)cc4)CC3)cc(OC(F)(F)F)c2)c1 [B1A063-01, N-(1-Adamantylmethyl)-4-[4-[[3-(3-ethoxyphenyl)-5-(trifluoromethoxy)phenyl]methyl]piperazin-1-yl]benzamide] | −1.0 | −11.0 |
| CCOc1cncc(-c2cc(CN3CCN(c4ccc(C(=O)NCC56CC7CC(CC(C7)C5)C6)cc4)CC3)cc(OC(F)(F)F)c2)c1 [B1A064-01, N-(1-Adamantylmethyl)-4-[4-[[3-(5-ethoxypyridin-3-yl)-5-(trifluoromethoxy)phenyl]methyl]piperazin-1-yl]benzamide] | 5.2 | −1.6 |
| CCOc1cccc(-c2ccc(CN3CCN(c4ccc(C(=O)NCC56CC7CC(CC(C7)C5)C6)cc4)CC3)c3ccccc23)c1 [B1A065-01, N-(1-Adamantylmethyl)-4-[4-[[4-(3-ethoxyphenyl)naphthalen-1-yl]methyl]piperazin-1-yl]benzamide] | −32.6 | −10.4 |
| CCOc1cncc(-c2ccc(CN3CCN(c4ccc(C(=O)NCC56CC7CC(CC(C7)C5)C6)cc4)CC3)c3ccccc23)c1 [B1A066-01, N-(1-Adamantylmethyl)-4-[4-[[4-(5-ethoxypyridin-3-yl)naphthalen-1-yl]methyl]piperazin-1-yl]benzamide] | 8.2 | 7.7 |
| CCOc1cccc(-c2csc(CN3CCN(c4ccc(C(=O)NCC56CC7CC(CC(C7)C5)C6)cc4)CC3)c2)c1 [B1A067-01, N-(1-Adamantylmethyl)-4-[4-[[4-(3-ethoxyphenyl)thiophen-2-yl]methyl]piperazin-1-yl]benzamide] | 3.6 | −7.8 |
| CCOc1cncc(-c2csc(CN3CCN(c4ccc(C(=O)NCC56CC7CC(CC(C7)C5)C6)cc4)CC3)c2)c1 [B1A068-01, N-(1-Adamantylmethyl)-4-[4-[[4-(5-ethoxypyridin-3-yl)thiophen-2-yl]methyl]piperazin-1-yl]benzamide] | 12.2 | 3.3 |
| CCOc1cccc(C#Cc2ccccc2CN2CCN(c3ccc(C(=O)NCC45CC6CC(CC(C6)C4)C5)cc3)CC2)c1 [B1A069-01, N-(1-Adamantylmethyl)-4-[4-[[2-[2-(3-ethoxyphenyl)ethynyl]phenyl]methyl]piperazin-1-yl]benzamide] | 8.3 | 0.8 |
| CCOc1cncc(C#Cc2ccccc2CN2CCN(c3ccc(C(=O)NCC45CC6CC(CC(C6)C4)C5)cc3)CC2)c1 [B1A070-01, N-(1-Adamantylmethyl)-4-[4-[[2-[2-(5-ethoxypyridin-3-yl)ethynyl]phenyl]methyl]piperazin-1-yl]benzamide] | 0.0 | 0.0 |
| CCOc1cccc(-c2ccccc2CN2CCN(c3ccc(C(=O)NCC45CC6CC(CC(C6)C4)C5)nn3)CC2)c1 [B1A071-01, N-(1-Adamantylmethyl)-6-[4-[[2-(3-ethoxyphenyl)phenyl]methyl]piperazin-1-yl]pyridazine-3-carboxamide] | −0.3 | −3.3 |
| CCOc1cncc(-c2ccccc2CN2CCN(c3ccc(C(=O)NCC45CC6CC(CC(C6)C4)C5)nn3)CC2)c1 [B1A072-01, N-(1-Adamantylmethyl)-6-[4-[[2-(5-ethoxypyridin-3-yl)phenyl]methyl]piperazin-1-yl]pyridazine-3-carboxamide] | 3.9 | −0.2 |
| CCOc1cccc(-c2ccc(CN3CCN(c4ccc(C(=O)NCC56CC7CC(CC(C7)C5)C6)nn4)CC3)cc2C)c1 [B1A073-01, N-(1-Adamantylmethyl)-6-[4-[[4-(3-ethoxyphenyl)-3-methylphenyl]methyl]piperazin-1-yl]pyridazine-3-carboxamide] | 3.2 | −4.7 |
| CCOc1cncc(-c2ccc(CN3CCN(c4ccc(C(=O)NCC56CC7CC(CC(C7)C5)C6)nn4)CC3)cc2C)c1 [B1A074-01, N-(1-Adamantylmethyl)-6-[4-[[4-(5-ethoxypyridin-3-yl)-3-methylphenyl]methyl]piperazin-1-yl]pyridazine-3-carboxamide] | 3.2 | −0.1 |
| CCOc1cccc(-c2ccc(CN3CCN(c4ccc(C(=O)NCC56CC7CC(CC(C7)C5)C6)nn4)CC3)cc2F)c1 [B1A077-01, N-(1-Adamantylmethyl)-6-[4-[[4-(3-ethoxyphenyl)-3-fluorophenyl]methyl]piperazin-1-yl]pyridazine-3-carboxamide] | 6.6 | −1.3 |
| CCOc1cncc(-c2ccc(CN3CCN(c4ccc(C(=O)NCC56CC7CC(CC(C7)C5)C6)nn4)CC3)cc2F)c1 [B1A078-01, N-(1-Adamantylmethyl)-6-[4-[[4-(5-ethoxypyridin-3-yl)-3-fluorophenyl]methyl]piperazin-1-yl]pyridazine-3-carboxamide] | 4.7 | 1.2 |
| CCOc1cccc(-c2ccc(CN3CCN(c4ccc(C(=O)NCC56CC7CC(CC(C7)C5)C6)nn4)CC3)c(OC)c2)c1 [B1A079-01, N-(1-Adamantylmethyl)-6-[4-[[4-(3-ethoxyphenyl)-2-methoxyphenyl]methyl]piperazin-1-yl]pyridazine-3-carboxamide] | 3.9 | −3.9 |
